The text below walks through data of patent US4518586A, “GRF Analogs III” (The Salk Institute for Biological Studies, priority 1983, dated 1985).

Square brackets hold non-standard residues; d marks the D form. Peptide text beside a SMILES is read from it. Nle = CCCC[C@H](N)C(=O)O

Assay [1] concerns cells of rat pituitary glands. In words: in vitro assay of growth hormone release from cultured rat pituitary cells, side-by-side with hpGRF(1-40)-OH standard. It is filed as cell-based. The note with it: for Comparison %: GH release at equimolar concentrations relative to synthetic hpGRF(1-40)-OH standard (100%), incubation 3 to 4 hours, ir GH by radioimmunoassay. On the procedure:
To determine the effectiveness of the various synthetic peptides to promote the release of growth hormone, in vitro assays are carried out using synthetic hpGRF(1-40)-OH as a standard in side-by-side comparison with equimolar concentrations of the various other analogs and fragments synthesized. Cultures are used which include cells of rat pituitary glands removed some three to five days previously. Cultures which are considered optimal for the secretion of growth hormone are used for the comparative testing, in the general manner described in Vale et al. Endocrinology, 91, 562-572 (1972) and as more particularly described in Vale et al. Endocrinology, (1983), in press. Incubation with the substance to be tested is carried out for 3 to 4 hours, and aliquots of the culture medium are removed and processed to measure their contents in immunoreactive GH(ir GH) by a well-characterized radioimmunoassay.

Assay [2] concerns freely running normal male rats. The assay is described as follows: in vivo GH secretion after injection through indwelling catheter in FLA-63-pretreated rats. Details: species or system rat. The note with it: male rats pretreated with FLA-63. On the procedure:
In addition to the in vitro tests for secretion of growth hormone, in vivo experiments inject the synthetic peptides through an indwelling catheter into freely running normal male rats after pretreating them with FLA-63, a dopamine hydroxylase inhibitor that suppresses spontaneous GH secretion without affecting the response to exogenous GRF. Blood samples are taken through the same catheter immediately prior to and 5 and 20 minutes after injections. […] Dosages between about 100 nanograms and about 50 micrograms of these peptides per Kg. of body weight are considered to be effective in causing GH secretion.

In assay [1], `CCCC[C@H](NC(=O)[C@@H](NC(=O)[C@@H](CCC(=O)O)NC(=O)[C@H](Cc1c[nH]cn1)NC(=O)[C@H](CC(C)C)NC(=O)[C@H](CC(C)C)NC(=O)[C@H](CCCCN)NC(=O)[C@H](CCCNC(=N)N)NC(=O)[C@H](C)NC(=O)[C@H](Cc1ccc(O)cc1)NC(=O)[C@H](CC(C)C)NC(=O)[C@H](CCC(N)=O)NC(=O)CNC(=O)[C@H](CC(C)C)NC(=O)[C@@H](NC(=O)[C@H](CCCNC(=N)N)NC(=O)[C@H](CCCNC(=N)N)NC(=O)[C@H](Cc1ccc(O)cc1)NC(=O)[C@H](CO)NC(=O)[C@H](CO)NC(=O)[C@@H](NC(=O)[C@H](Cc1ccccc1)NC(=O)[C@@H](NC(=O)[C@H](C)NC(=O)[C@H](CC(=O)O)NC(=O)[C@H](C)NC(=O)[C@@H](N)Cc1c[nH]cn1)[C@@H](C)CC)[C@@H](C)O)[C@@H](C)CC)[C@@H](C)CC)C(=O)N[C@@H](CC(N)=O)C(=O)N[C@@H](CCCNC(=N)N)C(N)=O` [[D-Glu^25, Nle^27]-rGRF(1-29)-NH2, H-His-Ala-Asp-Ala-Ile-Phe-Thr-Ser-Ser-Tyr-Arg-Arg-Ile-Leu-Gly-Gln-Leu-Tyr- Ala-Arg-Lys-Leu-Leu-His-D-Glu-Ile-Nle-Asn-Arg-NH2] (H-HADAIFTSSYRRILGQLYARKLLH[dE]I[Nle]NR-NH2) had a Comparison % of 125%.

Consider `CCCC[C@H](NC(=O)[C@@H](NC(=O)[C@H](CCC(=O)O)NC(=O)[C@H](Cc1c[nH]cn1)NC(=O)[C@@H](CC(C)C)NC(=O)[C@H](CC(C)C)NC(=O)[C@H](CCCCN)NC(=O)[C@H](CCCNC(=N)N)NC(=O)[C@H](C)NC(=O)[C@H](Cc1ccc(O)cc1)NC(=O)[C@H](CC(C)C)NC(=O)[C@H](CCC(N)=O)NC(=O)CNC(=O)[C@H](CC(C)C)NC(=O)[C@@H](NC(=O)[C@H](CCCNC(=N)N)NC(=O)[C@H](CCCNC(=N)N)NC(=O)[C@H](Cc1ccc(O)cc1)NC(=O)[C@H](CO)NC(=O)[C@H](CO)NC(=O)[C@@H](NC(=O)[C@H](Cc1ccccc1)NC(=O)[C@@H](NC(=O)[C@H](C)NC(=O)[C@H](CC(=O)O)NC(=O)[C@H](C)NC(=O)[C@@H](N)Cc1c[nH]cn1)[C@@H](C)CC)[C@@H](C)O)[C@@H](C)CC)[C@@H](C)CC)C(=O)N[C@@H](CC(N)=O)C(=O)N[C@@H](CCCNC(=N)N)C(N)=O` [[D-Leu^23, Nle^27]-rGRF(1-29)-NH2, H-His-Ala-Asp-Ala-Ile-Phe-Thr-Ser-Ser-Tyr-Arg-Arg-Ile-Leu-Gly-Gln-Leu-Tyr- Ala-Arg-Lys-Leu-D-Leu-His-Glu-Ile-Nle-Asn-Arg-NH2] (H-HADAIFTSSYRRILGQLYARKL[dL]HEI[Nle]NR-NH2), for which the Comparison % in assay [1] was determined as 160%. In assay [2] (GH levels in blood), the “duration compared with rGRF(1-29)-NH2” value is recorded as “substantially longer duration”. Also, the “stimulation of the secretion of pituitary GH (GH levels in blood)” value in assay [2] (blood samples prior to and 5 and 20 minutes after injection, radioimmunoassay) is given as “powerful stimulators of the secretion of pituitary GH”.

Turning to [D-Leu^23, Nle^27 ]-hpGRF(1-29)-NH2, the maximum effective concentration result in assay [1] (in vitro GH secretion) was “about 1 nanomolar”.
